Consider seven molecules from PMC4170737 (Bioorganic & medicinal chemistry letters, 2014).

Series [1] in a line: Plasma protein binding, mouse.
The nature of series [2]: Hepatic microsome stability, human. The conditions noted are these: for Hepatic Microsome Stability: human (first or only value of cell).
Series [3] is described as follows: Hepatic microsome stability, mouse. To be noted: for Hepatic Microsome Stability: mouse (first or only value of cell).
Series [4] can be described thus: Plasma stability, mouse.
Series [5] can be described thus: Plasma protein binding, human.
Series [6] can be described thus: Plasma stability, human.
A short description of series [7]: PAMPA permeability. Background: PAMPA measures passive passage across an artificial lipid membrane.
Series [8] concerns the target T1, human PMI (phosphomannose isomerase) (Homo sapiens, UniProt P34949).
T1 sequence (P34949 1-423): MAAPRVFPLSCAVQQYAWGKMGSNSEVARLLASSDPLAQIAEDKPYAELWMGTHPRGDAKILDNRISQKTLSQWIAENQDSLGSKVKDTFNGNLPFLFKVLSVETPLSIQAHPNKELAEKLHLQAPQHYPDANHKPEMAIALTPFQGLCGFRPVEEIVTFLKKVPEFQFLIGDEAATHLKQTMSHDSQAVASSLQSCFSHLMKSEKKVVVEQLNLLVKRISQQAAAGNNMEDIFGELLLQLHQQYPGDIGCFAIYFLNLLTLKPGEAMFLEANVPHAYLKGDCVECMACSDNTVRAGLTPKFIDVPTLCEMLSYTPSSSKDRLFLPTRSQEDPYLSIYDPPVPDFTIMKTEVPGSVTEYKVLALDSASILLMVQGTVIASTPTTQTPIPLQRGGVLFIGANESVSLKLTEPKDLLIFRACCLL

The target of series [9] is T2, human PMM2 (Homo sapiens, UniProt O15305).
T2 sequence (O15305 1-246): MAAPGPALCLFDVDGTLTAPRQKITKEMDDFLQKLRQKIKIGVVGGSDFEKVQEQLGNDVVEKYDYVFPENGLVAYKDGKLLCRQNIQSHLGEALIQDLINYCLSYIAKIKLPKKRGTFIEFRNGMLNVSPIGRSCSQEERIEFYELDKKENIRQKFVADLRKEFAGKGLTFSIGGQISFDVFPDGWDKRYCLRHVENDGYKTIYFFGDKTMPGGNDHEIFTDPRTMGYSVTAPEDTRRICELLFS

In series [10] the target is T2, human PMM2. The experiment in a line: biochemical.
For series [11], the target named is T3, TNAP (Homo sapiens, UniProt P05186).
T3 sequence (P05186 18-502 limits assumed): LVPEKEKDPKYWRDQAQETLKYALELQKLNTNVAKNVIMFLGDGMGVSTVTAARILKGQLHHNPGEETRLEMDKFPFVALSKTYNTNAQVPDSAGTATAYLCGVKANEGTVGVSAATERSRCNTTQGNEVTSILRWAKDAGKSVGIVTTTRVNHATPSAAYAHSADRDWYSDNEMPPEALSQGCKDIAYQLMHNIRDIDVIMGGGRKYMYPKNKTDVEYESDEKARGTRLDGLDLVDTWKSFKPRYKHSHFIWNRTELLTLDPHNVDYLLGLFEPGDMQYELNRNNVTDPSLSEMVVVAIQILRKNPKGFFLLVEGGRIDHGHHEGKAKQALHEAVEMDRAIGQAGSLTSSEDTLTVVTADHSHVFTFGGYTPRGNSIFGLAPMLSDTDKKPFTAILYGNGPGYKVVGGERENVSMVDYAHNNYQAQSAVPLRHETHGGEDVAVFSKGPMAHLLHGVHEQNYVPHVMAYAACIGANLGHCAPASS

In series [12] the test system is mevalonate pathway in streptococcus pneumonia. The conditions noted are these: ref PubChem AID1028; cited from earlier work.
The mark [13] stands for this setting: 1× PBS, pH 7.4 alone, mouse column (second value of cell).
[14] abbreviates: mouse plasma: 1× PBS, pH 7.4, 1:1 (first value of cell).
[15] abbreviates: 1× PBS, pH 7.4 alone, human column (second value of cell).
The mark [16] stands for this setting: human plasma: 1× PBS, pH 7.4, 1:1 (first value of cell).

Bounds are passed on as bounds.

Consider `CN(C)S(=O)(=O)c1cccc(-n2sc3ccccc3c2=O)c1` [Compound 2s], for which the “Plasma Protein Binding” value in [1] (1 μM) is given as 35.6 % Bound; in [1] (10 μM), 34.1 % Bound; in [5] (10 μM) it was “n.d. / 56.5 % Bound”. In addition, the “Hepatic Microsome Stability” value in series [2] is on record as 72.4 % Remaining at 1hr; in series [3], 100 % Remaining at 1hr. The “Plasma Stability” value amounted to 40.0 % Remaining at 3hrs in series [4] (setting [13]), 65.3 % Remaining at 3hrs in [4] (setting [14]), 32.3 % Remaining at 3hrs in series [6] (setting [15]) and 11.4 % Remaining at 3hrs in series [6] (setting [16]).

As usually defined, the Papp is a coefficient for how fast a substance crosses the barrier. High values mean ready permeation, low ones poor permeation. In the case of `COC(=O)c1cccc(-n2sc3ccccc3c2=O)c1` [Compound 2o], the “Plasma Protein Binding” value in series [1] (1 μM) is 48.0 % Bound; in series [1] (10 μM), 37.6 % Bound; in series [5] (1 μM) it was 41.2 % Bound; in series [5] (10 μM), 57.3 % Bound. In addition, the “Hepatic Microsome Stability” value in series [2] was 72.4 % Remaining at 1hr; in [3], 45.9 % Remaining at 1hr. Moreover, the “Hepatic Microsome Stability (NADPH minus)” value is 31.5 % Remaining at 1hr in series [2] (human, NADPH minus (second value of cell)) and 44.6 % Remaining at 1hr in [3] (mouse, NADPH minus (second value of cell)). Moreover, the “Plasma Stability” value worked out at 55.2 % Remaining at 3hrs in series [4] (setting [13]), 59.6 % Remaining at 3hrs in [4] (setting [14]), 49.3 % Remaining at 3hrs in series [6] (setting [15]) and 15.4 % Remaining at 3hrs in [6] (setting [16]). Further, the Papp in [7] (PAMPA Permeability, donor pH 5.0, acceptor pH 7.4) is 12900 nm/s; in series [7] (PAMPA Permeability, donor pH 6.2, acceptor pH 7.4) it was 12300 nm/s; in series [7] (pH 7.4, PAMPA Permeability, donor pH 7.4, acceptor pH 7.4), 13000 nm/s.

In the case of `O=c1c2ccccc2sn1-c1ccc(F)c(Cl)c1` [Compound 2m], the “Activity at PMI (in words)” value in series [8] is “inactive”. Also, in [9], the “Activity at PMM2 (in words)” value was “inactive”.

Consider `CCOC(=O)c1ccc(-n2sc3ccccc3c2=O)cc1` [Compound 2p], for which the “Activity at PMI (in words)” value in [8] was “essentially devoid of activity”. The “Activity at PMM2 (in words)” value in series [9] is on record as “essentially devoid of activity”.

The IC50 is the concentration that gives 50% inhibition. The molecule `CN(C)C(=O)c1cccc(-n2sc3ccccc3c2=O)c1` [Compound 2q] came in with a half-maximal inhibitory concentration (IC50) in series [10] above 50 µM. Also, the “Plasma Protein Binding” value in series [1] (1 μM) was determined as 48.0 % Bound; in series [1] (10 μM) it was 46.7 % Bound; in [5] (1 μM) it was 41.3 % Bound. Moreover, the “Hepatic Microsome Stability” value in series [2] came out at 45.7 % Remaining at 1hr; in [3], 56.6 % Remaining at 1hr. Also, the “Activity at PMI (in words)” value in [8] is recorded as “no activity”. Besides, in series [11], the “Inhibitory activity against TNAP (in words)” value is “devoid of any significant inhibitory activity”. Besides, the “Plasma Stability” value in series [4] (setting [13]) was determined as 56.9 % Remaining at 3hrs; in [4] (setting [14]), 76.2 % Remaining at 3hrs; in series [6] (setting [15]), 60.0 % Remaining at 3hrs; in series [6] (setting [16]), 18.9 % Remaining at 3hrs. Further, in series [9], the “Activity at PMM2 (in words)” value is “no activity”. In addition, the “Activity in screen for inhibitors of the mevalonate pathway (in words)” value in series [12] was “weak activity”.

For the molecule `CCN(CC)S(=O)(=O)c1cccc(-n2sc3ccccc3c2=O)c1` [Compound 2t], the “Activity at PMI (in words)” value in [8] is “devoid of activity”. Further, in series [9], the “Activity at PMM2 (in words)” value is on record as “devoid of activity”.

In the case of `O=C(O)c1cccc(-n2sc3ccccc3c2=O)c1` [Compound 2n], the “Plasma Protein Binding” value is listed as 18.8 % Bound in series [1] (1 μM), 30.1 % Bound in [1] (10 μM) and “n.d. / 59.4 % Bound” in series [5] (10 μM). Moreover, the “Hepatic Microsome Stability” value in series [2] and in series [3] was 100 % Remaining at 1hr throughout. Moreover, the “Plasma Stability” value in [4] (setting [13]) is 71.2 % Remaining at 3hrs; in series [4] (setting [14]), 100 % Remaining at 3hrs; in series [6] (setting [15]), 55.5 % Remaining at 3hrs; in series [6] (setting [16]) it was 50.2 % Remaining at 3hrs. Moreover, the “Activity at PMM2 (in words)” value in series [9] is “no activity”.
